Consider 14 compounds from patent US20190119282A1, “IMIDAZOPYRIDAZINES USEFUL AS INHIBITORS OF THE PAR-2 SIGNALING PATHWAY” (Vertex Pharmaceuticals Incorporated, priority 2013, published 2019).

The target in assay [1] is T1, PAR2 (HT-29 cells, SLIGKV activation) (Homo sapiens, UniProt P55085).
T1 construct: host or cells: HT-29 cells
T1 sequence (P55085 26-397): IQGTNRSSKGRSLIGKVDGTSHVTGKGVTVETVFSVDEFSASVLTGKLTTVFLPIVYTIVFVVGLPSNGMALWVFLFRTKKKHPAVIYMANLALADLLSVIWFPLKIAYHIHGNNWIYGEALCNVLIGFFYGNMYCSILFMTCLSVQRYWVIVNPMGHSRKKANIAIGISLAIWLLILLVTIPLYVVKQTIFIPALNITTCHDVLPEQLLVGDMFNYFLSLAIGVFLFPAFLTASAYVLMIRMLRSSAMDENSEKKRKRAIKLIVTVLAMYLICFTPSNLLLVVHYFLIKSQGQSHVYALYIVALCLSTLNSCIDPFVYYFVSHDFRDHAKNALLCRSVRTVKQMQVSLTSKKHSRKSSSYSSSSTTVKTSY
The experiment in a line: Ca FLIPR TETRA assay, ANTAGONIST mode, stimulation with 8 μM SLIGKV. Type of assay: cell-based. Conditions: HT-29 cells, stimulation with 8 μM SLIGKV. A digest of the protocol: (§1)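 FLIPR Tetra Ca2+ read-out in HT-29 cells, calcium 5 dye. Compound preincubation 30 min r.t., with an initial read for agonist activity. Final activator levels: SLIGKV 8 μM, thrombin 1 U/mL, trypsin 3.1 U/mL, UTP 0.6 μM.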

For assay [2], the target named is T2, PAR2 (HT-29 cells, trypsin activation) (Homo sapiens, UniProt P55085).
T2 construct: host or cells: HT-29 cells
T2 sequence (P55085 26-397): T1 sequence (P55085 26-397)
Description: Ca FLIPR TETRA assay, ANTAGONIST mode, stimulation with 3.1 U/mL trypsin. Conditions: HT-29 cells, stimulation with 3.1 U/mL trypsin. Type of assay: cell-based. A digest of the protocol: as §1

Assay [3] concerns Thrombin-stimulated Ca2+ response in HT-29 cells. The experiment in a line: Ca FLIPR TETRA assay, ANTAGONIST mode, stimulation with 1 U/mL Thrombin. Type of assay: cell-based, human. Conditions: Homo sapiens; HT-29 cells, stimulation with 1 U/mL Thrombin. A digest of the protocol: as §1
The test system of assay [4] is UTP-stimulated Ca2+ response in HT-29 cells. Description: Ca FLIPR TETRA assay, ANTAGONIST mode, stimulation with 0.6 μM UTP. Type of assay: cell-based, human. To be noted: Homo sapiens; HT-29 cells, stimulation with 0.6 μM UTP. A digest of the protocol: as §1

Where only a bound is given, the exact number is not on record here.

For the compound `CC(C)c1cc(-c2ccc(F)cc2)nn2cc(C(=O)N3CCN(C(=O)[C@H](O)CC(C)(C)C)CC3(C)C)nc12` [Compound I-103], the IC50 (as a rule, the midpoint of a concentration-inhibition curve) is 0.4 nM in assay [1], 0.9 nM in assay [2], over 5000 nM in assay [3] and over 5000 nM in assay [4].
Consider `CCc1cc(-c2ccc(F)cc2)nn2cc(C(=O)N3CCN(C(=O)[C@H](O)CC(C)(C)C)[C@@H](C)C3)nc12` [Compound I-104], for which the IC50 in assay [1] amounted to 2 nM; in assay [2], 7 nM; in assay [3], 15000 nM; in assay [4], 12000 nM.
As for `CC(C)C[C@@H](O)C(=O)N1CCN(C(=O)c2cn3nc(-c4ccc(F)cc4)cc(C(C)C)c3n2)C[C@@H]1C` [Compound I-105], the IC50 is 0.4 nM in assay [1], 0.8 nM in assay [2], 10000 nM in assay [3] and 8800 nM in assay [4].
The like results for `CC(C)c1cc(-c2ccc(F)cc2)nn2cc(C(=O)N3CCN(C(=O)[C@H](O)c4ccccc4Cl)[C@@H](C)C3)nc12` [Compound I-106] were, in that order, 0.6 nM, 1 nM, over 5000 nM and over 5000 nM.
Take `CCCCC(O)C(=O)N1CCN(C(=O)c2cn3nc(-c4ccc(F)cc4)cc(C(C)C)c3n2)C[C@@H]1C` (some centres unmarked) [Compound I-107]: the IC50 was 1 nM in assay [1], 4 nM in assay [2], 10000 nM in assay [3] and 9600 nM in assay [4].
In the same order, the values of `CC(C)c1cc(-c2ccc(F)cc2)nn2cc(C(=O)N3CCN(C(=O)C(O)c4ccc(F)cc4)[C@@H](C)C3)nc12` (some centres unmarked) [Compound I-108] are 0.7 nM, 0.7 nM, 8300 nM and 16000 nM.
The like results for `CC(C)CC(O)C(=O)N1CCN(C(=O)c2cn3nc(-c4ccc(F)cc4)cc(C(C)C)c3n2)C[C@@H]1C` (some centres unmarked) [Compound I-109] were, in that order, 0.9 nM, 4 nM, 11000 nM and 10000 nM.
With `CC(C)c1cc(-c2ccc(F)cc2)nn2cc(C(=O)N3CCN(C(=O)[C@@H](O)C(C)C)[C@@H](C)C3)nc12` [Compound I-110], the IC50 in assay [1] worked out at 110 nM; in assay [2], 1500 nM; in assay [3] it was 19000 nM; in assay [4], 18000 nM.
With `CC(C)c1cc(-c2ccc(F)cc2)nn2cc(C(=O)N3CCN(C(=O)[C@H](O)C(C)C)[C@@H](C)C3)nc12` [Compound I-111], the IC50 in assay [1] is 7 nM; in assay [2], 15 nM; in assay [3] it was 20000 nM; in assay [4] it was 19000 nM.
The like results for `CC(C)c1cc(-c2ccc(F)cc2)nn2cc(C(=O)N3CCN(C(=O)C(C)(C)O)[C@@H](C)C3)nc12` [Compound I-112] were, in that order, 2400 nM, 1000 nM, 38000 nM and 35000 nM.
In the same order, the values of `CC(C)c1cc(-c2ccc(F)cc2)nn2cc(C(=O)N3CCN(C(=O)C(O)Cc4ccccc4)[C@@H](C)C3)nc12` (some centres unmarked) [Compound I-113] are 0.8 nM, 3 nM, 8400 nM and 7200 nM.
As for `CC(C)c1cc(-c2ccc(F)cc2)nn2cc(C(=O)N3CCN(C(=O)[C@H](O)C4CCCCC4)[C@@H](C)C3)nc12` [Compound I-114], the IC50 in assay [1] amounted to 0.5 nM; in assay [2], 0.6 nM; in assay [3] it was 7700 nM; in assay [4] it was 8700 nM.
In the case of `CC(C)c1cc(-c2ccc(F)cc2)nn2cc(C(=O)N3CCN(C(=O)C4(O)CC4)[C@@H](C)C3)nc12` [Compound I-115], the IC50 in assay [1] is 100 nM; in assay [2] it was 160 nM; in assay [3], over 50000 nM; in assay [4], over 50000 nM.
Turning to `CC(C)c1cc(-c2ccc(F)cc2)nn2cc(C(=O)N3CCN(C(=O)C(O)C(C)C)[C@@H](C)C3)nc12` (some centres unmarked) [Compound I-116], the IC50 in assay [1] stood at 12 nM; in assay [2] it was 72 nM; in assay [3], 19000 nM; in assay [4], 22000 nM.
